Earlier results as cited in patent publication US9321030B2, “Clay-containing thin films as carriers of absorbed molecules” (priority 2012, dated 2016).

How the values were obtained:
[1] = tested on: multi-drug resistant strains of gram-positive and gram-negative bacteria; conditions: clinically relevant multi-drug resistant strains
[2] = tested on: Pseudomonas aeruginosa biofilms
[3] = tested on: Mycobacterium tuberculosis
S. aureus ATCC 12600 = conditions: known value

Row | Substance | efficacy against planktonic cells [1] | activity against biofilms [2] | activity [3] | minimum inhibitory concentration (S. aureus ATCC 12600) [µg/mL]
1 | H—(NLys-Nspe-Nspe)4-NH2 [Peptoid 1] | demonstrated efficacy | active | active | 
2 | gentamicin |  |  |  | 1
